Key:
[1] = target: T1, EcPPCS (phosphopantothenoylcysteine synthetase) (Escherichia coli, UniProt P0ABQ0); assay: CD melting temperature shift; type: binding
[2] = target: T1, EcPPCS (phosphopantothenoylcysteine synthetase); assay: pyrophosphate release, HPLC/LCMS of cytidylylation; type: biochemical
[3] = target: T1, EcPPCS (phosphopantothenoylcysteine synthetase); assay: CD melting temperature shift; type: binding; remark: listed apart in the source
[4] = target: T1, EcPPCS (phosphopantothenoylcysteine synthetase); assay: progress curves with Morrison fit, inhibitor formed in situ from P-CJ and CTP; type: biochemical
[5] = target: T2, SaCoaBC (bifunctional CoaBC protein, phosphopantothenoylcysteine synthetase) (Staphylococcus aureus, UniProt Q2G268); assay: progress curve inhibition analysis; type: biochemical
T2 sequence (Q2G268 1-399): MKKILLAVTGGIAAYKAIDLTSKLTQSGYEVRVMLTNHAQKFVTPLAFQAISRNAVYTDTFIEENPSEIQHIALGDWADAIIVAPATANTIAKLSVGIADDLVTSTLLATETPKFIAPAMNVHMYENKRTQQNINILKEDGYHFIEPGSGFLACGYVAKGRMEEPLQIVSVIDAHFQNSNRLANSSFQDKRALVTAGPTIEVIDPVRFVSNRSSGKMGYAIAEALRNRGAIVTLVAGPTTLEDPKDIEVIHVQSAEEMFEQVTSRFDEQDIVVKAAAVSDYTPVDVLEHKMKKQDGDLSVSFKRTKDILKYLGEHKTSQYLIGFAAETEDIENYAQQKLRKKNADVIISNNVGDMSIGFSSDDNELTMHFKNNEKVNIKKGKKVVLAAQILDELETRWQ

[6] = target: T3, SaPanKII (pantothenate kinase, type II) (Staphylococcus aureus, UniProt Q8NVG0); assay: coupled spectrophotometric kinase assay with purified enzyme; type: biochemical
[7] = target: T3, SaPanKII (pantothenate kinase, type II); type: biochemical

T1 sequence (P0ABQ0 181-406): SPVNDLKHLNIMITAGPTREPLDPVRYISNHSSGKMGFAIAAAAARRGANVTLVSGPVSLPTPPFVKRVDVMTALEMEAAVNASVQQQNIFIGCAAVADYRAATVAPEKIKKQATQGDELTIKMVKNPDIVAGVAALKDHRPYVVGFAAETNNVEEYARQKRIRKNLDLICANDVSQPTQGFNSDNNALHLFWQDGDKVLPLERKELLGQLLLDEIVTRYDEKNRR
T3 sequence (Q8NVG0 whole entry): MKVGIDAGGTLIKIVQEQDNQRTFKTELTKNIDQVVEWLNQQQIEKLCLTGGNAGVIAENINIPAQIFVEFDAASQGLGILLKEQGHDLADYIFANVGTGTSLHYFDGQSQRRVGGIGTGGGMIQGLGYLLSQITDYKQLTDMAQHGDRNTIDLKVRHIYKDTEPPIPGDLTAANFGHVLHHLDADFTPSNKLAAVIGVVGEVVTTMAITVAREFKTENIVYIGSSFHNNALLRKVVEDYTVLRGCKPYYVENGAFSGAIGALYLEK

## CC(C)(COP(=O)(O)O)[C@@H](O)C(=O)NCCC(=O)OP(=O)(O)OC[C@H]1O[C@@H](n2ccc(N)nc2=O)[C@H](O)[C@@H]1O [compound 14, P-Pan-CMP]
[1]
  CD melting temperature shift (47.7 to 54.3 °C), formed in situ from P-Pan and CT: 54.3 °C (Tm)

## CC(C)(COP(=O)(O)O)[C@@H](O)C(=O)N/C=C/C(=O)O [compound 13, P-CJ]
[2]
  IC50: 2660 ± 160 nM

## Nc1ccn([C@@H]2O[C@H](COP(=O)(O)OP(=O)(O)OP(=O)(O)O)[C@@H](O)[C@H]2O)c(=O)n1 [CTP]
[3]
  CD melting temperature shift (47.7 to 49.7 °C): 49.7 °C (Tm)

## CC(C)(COP(=O)(O)O)[C@@H](O)C(=O)N/C=C/C(=O)OP(=O)(O)OC[C@H]1O[C@@H](n2ccc(N)nc2=O)[C@H](O)[C@@H]1O [compound 16, P-CJ-CMP]
[4]
  Ki: 164 nM
[5]
  Ki: 13 nM

## CC(C)(CO)[C@@H](O)C(=O)NCCC(=O)O [compound 2, pantothenic acid]
[6]
  coupled spectrophotometric kinase assay with purified enzyme: 30.2±8.7 mM^−1.s^−1 (kcat/Km)

## CC(C)(CO)[C@@H](O)C(=O)N/C=C/C(=O)O [compound 1, CJ-15,801]
[7]
  HPLC of phosphorylation and coupled spectrophotometric kinase assay with purifie: 13.8±4.2 mM^−1.s^−1 (kcat/Km)
